Test results published in article PMC8619673 (Cells, 2021).

Key:
Aβ42 peptide = target: T1, Aβ42 peptide (Homo sapiens, UniProt P05067); experiment: Thioflavin T aggregation assay; assay type: biochemical
T1 construct: Aβ42 peptide (10 μM; Kelowna Int’l Scientific Inc., New Taipei City, Taiwan); purchased Kelowna Int’l Scientific Inc., New Taipei City, Taiwan
Method: To form Aβ aggregation, Aβ42 peptide (10 μM; Kelowna Int’l Scientific Inc., New Taipei City, Taiwan) was incubated with tested compounds (5–20 μM) in 150 mM NaCl and 20 mM Tris-HCl (pH8.0) at 37 °C for 48 h. Thioflavin T (10 μM; Sigma-Aldrich) was added to the Aβ mixture and incubated at room temperature for 5 min. The fluorescence intensity was recorded at 420 nm excitation and 485 nm emission by an FLx800 microplate reader (Bio-Tek, Winooski, VT, USA). Half maximal effective concentration (EC50) was estimated by a method of interpolation.

Aβ-GFP SH-SY5Y cells = experiment: Neurite outgrowth analysis; assay type: cell-based, Human; details: 5 µM; for Neurite total length: induced untreated 23.9, uninduced 31.2; for Neurite length: untreated 25.3
Method: Aβ-GFP SH-SY5Y cells (6 × 10^4 cells) were seeded on a 24-well plate with retinoic acid (10 µM) on day 1. Tested coumarins (5 µM) and doxycycline (5 μg/mL) were added on day 2, as described. On day 8, the cells were washed with phosphate-buffered saline (PBS) twice and fixed in 4% paraformaldehyde at 4 °C for 15 min. Cells were permeabilized with Triton X-100 (0.1%) for 10 min, blocked with bovine serum albumin (3%) for 20 min, and stained with anti-neuronal TUBB3 antibody (1:1000; Covance, Princeton, NJ, USA) at 4 °C overnight. The next day, cells were washed with PBS twice and stained by a secondary donkey anti-rabbit Alexa Fluor® 555 antibody (1:1000; Thermo Fisher Scientific) and 4′,6-diamidino-2-phenylindole (DAPI; 0.1 µg/mL; Sigma-Aldrich) at room temperature for 1 h. Neuronal images from at least 60 individual fields (150–250 neurons per field) per experiment were captured at excitation 531/40 nm and emission 593/40 nm wavelengths using an ImageXpress micro confocal high-content imaging system (Molecular Devices). Neurite total length (μm) and numbers of process (the number of primary neurites originated from the cell body of a neuron) and branch (the number of secondary neurites extended from primary neurites) were analyzed using a MetaXpress neurite outgrowth application module (Molecular Devices). For each sample, around 6000 cells were analyzed in each of three independent experiments.
(§1) Lentiviral short hairpin RNA (shRNA) targeting TRKB (TRCN0000002243, TRCN0000002245, and TRCN0000002246) and a negative-scrambled control (TRC2.Void) were obtained from the National RNAi Core Facility, IMB/GRC, Academia Sinica (Taipei, Taiwan). As described, cells were plated on 6- or 24-well plates, with retinoic acid added on day 1. Cells were infected with lentivirus (multiplicity of infection, 3 for each shRNA), with polybrene (8 µg/mL; Sigma-Aldrich) on the next day. Cells were pretreated with tested compounds (5 µM) for 8 h after changing medium, followed by doxycycline on day 3. Cells were collected for further analysis on day 9. The hairpin sequences of targeting shRNA were below: • TRCN0000002243: 5’-[…]ctcgag[…]-3’ • TRCN0000002245: 5’-[…]ctcgagATGTT-[…]-3’ • TRCN0000002246: 5’-[…]ctcgag[…]-3’ • TRC2.Void: 5’-[…]ctcgag[…]-3’

TRKB = experiment: Western blot, TRKB and p-TRKB; assay type: cell-based, Human; details: 5 µM; for p-TRKB (Y516) protein level relative to uninduced cells (100%): induced untreated 40%; for p-TRKB (Y817) protein level relative to uninduced cells (100%): induced untreated 71%; for TRKB expression relative to uninduced cells (100%): scrambled shRNA-infected Aβ-expressing cells, untreated 80%
Method: (§2) Cellular proteins were prepared using a lysis buffer containing NaCl (150 mM), ethylene diamine tetraacetic acid (EDTA, 1 mM, pH8.0), Tris-HCl (50 mM, pH8.0), ethylene glycol tetraacetic acid (EGTA, 1 mM, pH8.0), sodium dodecyl sulfate (SDS, 0.1%), sodium deoxycholate (SD, 0.5%), Triton X-100 (1%), and protease (Sigma-Aldrich), and phosphatase (Abcam, Cambridge, MA, USA) inhibitor cocktails. After quantitation by protein assay kit (Bio-Rad, Hercules, CA, USA), 20 µg proteins were separated by SDS-polyacrylamide (10%) gel electrophoresis and transferred to polyvinylidene difluoride (PVDF) membranes (Sigma-Aldrich) using a Mini Trans-Blot cell (Bio-Rad). After blocking, the membrane was probed with anti-TRKB, anti-p-TRKB (Y516), anti-p-TRKB (Y817) (1:500; Cell Signaling, Danvers, MA, USA), anti-ERK, anti-p-ERK (T202/Y204) (1:1000; Cell Signaling), anti-AKT, anti-p-AKT (S473) (1:1000; Cell Signaling), anti-CREB, anti-p-CREB (S133) (1:1000; Millipore, Billerica, MA, USA), anti-BDNF, anti-BCL2 (1:500; Santa Cruz Biotechnology, Santa Cruz, CA, USA), anti-BAX (1:1000; Cell Signaling), anti-β-tubulin (1:500; Sigma-Aldrich), or anti-GAPDH (1:1000, MDBio, Taipei, Taiwan) antibody. The immune complexes were detected using goat anti-mouse or goat anti-rabbit IgG antibody conjugated with horseradish peroxidase (1:5000; GeneTex, Irvine, CA, USA) and chemiluminescent substrate (Millipore).
as §1

ERK = experiment: Western blot, p-ERK; assay type: cell-based, Human; details: 5 µM; induced untreated 79%
Method: as §2

BCL2 = experiment: Western blot, BCL2; assay type: cell-based, Human; details: 5 µM; induced untreated 72%
Method: as §2

BAX = experiment: Western blot, BAX; assay type: cell-based, Human; details: 5 µM; induced untreated 182%
Method: as §2

in vitro = details: PAMPA
Method: PAMPA was used to predict the penetration of the tested compounds across the BBB. […] The filter PVDF membrane (pore size 0.45 μm; Millipore) was coated with 4 μL of porcine polar brain lipid (20 mg/mL; Avanti Polar Lipids, Alabaster, AL, USA) in dodecane and the acceptor well filled with 200 μL of 5% DMSO in PBS. The filter plate was carefully placed on the donor plate to form a sandwich plate at room temperature for 18 h. After the permeation time, the filter and donor plates were separated. The concentration of the tested compound in the donor and acceptor wells was measured by an AB Sciex QTrap 5500 mass spectrometer (Applied Biosystems) linked to a 1200 HPLC system (Agilent Technologies, Palo Alto, CA, USA). The concentrations of the QC compounds were determined by a Tecan Infinite M200 Pro microplate reader (Switzerland). The effective permeability coefficient (Pe) was calculated as described. Each compound was tested in triplicate.

[1] = TRKB shRNA-infected cells, untreated 2.9
[2] = induced untreated 1.8, uninduced 2.8
[3] = induced untreated 3.3, uninduced 4.4
[4] = scrambled shRNA-infected cells, untreated 2.4
[5] = scrambled shRNA-infected cells, untreated 3.5
[6] = BBB Permeability Classification
[7] = Measured Pe (effective permeability)

T1 sequence (P05067 672-713 limits assumed): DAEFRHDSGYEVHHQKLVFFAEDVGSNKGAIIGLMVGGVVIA

| Structure (SMILES) | Aβ aggregation inhibition (in words) (Aβ42 peptide; compound 20 μM, thioflavin T assay) | Neurite process number (Aβ-GFP SH-SY5Y cells; [1]) | Neurite branch number (Aβ-GFP SH-SY5Y cells; [2]) | Neurite process number (Aβ-GFP SH-SY5Y cells; [3]) | Neurite total length (Aβ-GFP SH-SY5Y cells) | Neurite branch number (Aβ-GFP SH-SY5Y cells; [4]) | Neurite process number (Aβ-GFP SH-SY5Y cells; [5]) | Neurite length (Aβ-GFP SH-SY5Y cells; scrambled shRNA-infected cells) | p-TRKB (Y516) protein level relative to uninduced cells (100%) (TRKB) | p-TRKB (Y817) protein level relative to uninduced cells (100%) (TRKB) | TRKB expression relative to uninduced cells (100%) (TRKB) | p-ERK (T202/Y204) protein level relative to uninduced cells (100%) (ERK) | BCL2 protein level relative to uninduced cells (100%) (BCL2) | BAX protein level relative to uninduced cells (100%) (BAX) [%] | Papp at 18 h, 1 μM (in vitro; [6]) [×10⁻⁶ cm/s] | Papp at 18 h, 1 μM (in vitro; [7]) [×10⁻⁶ cm/s] | Thioflavin T fluorescence (Aβ aggregation) (Aβ42 peptide; compound 20 µM, Aβ42 10 μM, 37 °C 2 days, 621 AU without compound, 151 AU without incubation) [AU] |
| --- | --- | --- | --- | --- | --- | --- | --- | --- | --- | --- | --- | --- | --- | --- | --- | --- | --- |
| CCOC(=O)c1cc2c(O)cccc2oc1=O [ZN014, ethyl 5-hydroxy-2-oxo-2H-chromene-3-carboxylate] | did not inhibit Aβ aggregation | 3.5 | 2.4–2.5 | 4.2–4.3 | 29.1–29.3 μm | 3.0–3.1 | 3.9–4.0 | 30.7–30.9 µm | 92–100% | 94–108% | 77–81% | 95–107% | 104–116% | 126 | < 2 | 0.56 ± 0.01 | – |
| O=C(/C=C/c1ccccc1O)c1c(O)c2ccccc2oc1=O [ZN015, (E)-4-hydroxy-3-(3-(2-hydroxyphenyl)acryloyl)-2H-chromen-2-one] | – | 3.5 | 2.4–2.5 | 4.2–4.3 | 29.1–29.3 μm | 3.0–3.1 | 3.9–4.0 | 30.7–30.9 µm | 92–100% | 94–108% | 77–81% | 95–107% | 104–116% | 126 | > 4 | 5.16 ± 0.11 | 403 |
